From ChEMBL document CHEMBL5042478, “Design, Synthesis, and Evaluation of VHL-Based EZH2 Degraders to Enhance Therapeutic Activity against Lymphoma” (J Med Chem, 2021)
Active and inactive are the calls of the source. The rule behind the calls is not given here.

Tests used:
[1] = molecular target: T1, Protein cereblon/Histone-lysine N-methyltransferase EZH2 (Homo sapiens) (UniProt Q15910+Q96SW2); experiment: Protac activity at CRBN E3 ligase/EZH2 in human 22Rv1 cells assessed as inhibition of H3K27me3 at 0.3 uM incubated for 48 hrs by Western blot analysis; format: cell-based
[2] = molecular target: T1, Protein cereblon/Histone-lysine N-methyltransferase EZH2 (Homo sapiens); experiment: Protac activity at CRBN E3 ligase/EZH2 in human 22Rv1 cells assessed as inhibition of H3K27me3 at 3 uM incubated for 48 hrs by Western blot analysis; format: cell-based
[3] = molecular target: T1, Protein cereblon/Histone-lysine N-methyltransferase EZH2 (Homo sapiens); experiment: Protac activity at CRBN E3 ligase/EZH2 in human 22Rv1 cells assessed as degradation of EZH2 at 3 uM incubated for 48 hrs by Western blot analysis; format: cell-based
[4] = molecular target: T1, Protein cereblon/Histone-lysine N-methyltransferase EZH2 (Homo sapiens); experiment: Protac activity at CRBN E3 ligase/EZH2 in human 22Rv1 cells assessed as inhibition of H3K27me3 at 1 uM incubated for 48 hrs by Western blot analysis; format: cell-based
[5] = molecular target: T1, Protein cereblon/Histone-lysine N-methyltransferase EZH2 (Homo sapiens); experiment: Protac activity at CRBN E3 ligase/EZH2 in human 22Rv1 cells assessed as degradation of EZH2 at 1 uM incubated for 48 hrs by Western blot analysis; format: cell-based
[6] = molecular target: T1, Protein cereblon/Histone-lysine N-methyltransferase EZH2 (Homo sapiens); experiment: Protac activity at CRBN E3 ligase/EZH2 in human 22Rv1 cells assessed as degradation of EZH2 at 0.3 uM incubated for 48 hrs by Western blot analysis; format: cell-based
[7] = molecular target: T2, von Hippel-Lindau disease tumor suppressor/Histone-lysine N-methyltransferase EZH2 (Homo sapiens) (UniProt Q15910+P40337); experiment: Protac activity at VHL/EZH2 in human 22Rv1 cells assessed as EZH2 protein abundance after 24 hrs by Western blot analysis; format: cell-based; settings: dose 1-6 µM
[8] = molecular target: T3, von Hippel-Lindau disease tumor suppressor/Polycomb protein SUZ12 (Homo sapiens) (UniProt Q15022+P40337); experiment: Protac activity at VHL/SUZ12 in human SUDHL2 cells assessed as reduction in SUZ12 level at 2 uM incubated for 24 hrs by Western blot analysis; format: cell-based
SUD4 = experiment: Antiproliferative activity against human SU-DHL-4 cells assessed as reduction in cell viability at 0.01 to 10 uM measured after 5 days by MTS assay; format: functional, cell-based; settings: dose 0.01-10 µM, time 5.0 day
[9] = molecular target: T2, von Hippel-Lindau disease tumor suppressor/Histone-lysine N-methyltransferase EZH2 (Homo sapiens); experiment: Protac activity at VHL/EZH2 in human 22Rv1 cells assessed as reduction in H3K27me3 level after 24 hrs by Western blot analysis; format: cell-based; settings: dose 1-6 µM
[10] = molecular target: T2, von Hippel-Lindau disease tumor suppressor/Histone-lysine N-methyltransferase EZH2 (Homo sapiens); experiment: Protac activity at VHL/EZH2 in human 22Rv1 cells assessed as maximum degradation efficacy at 2 uM by Western blot analysis relative to control; format: cell-based
[11] = molecular target: T2, von Hippel-Lindau disease tumor suppressor/Histone-lysine N-methyltransferase EZH2 (Homo sapiens); experiment: Protac activity at VHL/EZH2 in human 22Rv1 cells assessed as reduction in EZH2 level at 1 uM incubated for 48 hrs by Western blot analysis; format: cell-based
SU-DHL-6 [12] = experiment: Induction of apoptosis in human SU-DHL-6 cells assessed as increase in cleaved PARP level at 1 to 5 uM incubated for 48 hrs by Western blot analysis; format: functional, cell-based; settings: dose 1-5 µM
SU-DHL-6 [13] = experiment: Induction of apoptosis in human SU-DHL-6 cells at 1 to 5 uM incubated for 48 hrs by Annexin V/propidium iodide staining based flow cytometry; format: functional, cell-based; settings: dose 1-5 µM
SU-DHL-2 = experiment: Antiproliferative activity against human SUDHL2 cells assessed as reduction in cell viability at 0.01 to 10 uM measured after 5 days by MTS assay; format: functional, cell-based; settings: dose 0.01-10 µM, time 5.0 day
[14] = molecular target: T3, von Hippel-Lindau disease tumor suppressor/Polycomb protein SUZ12 (Homo sapiens); experiment: Protac activity at VHL/SUZ12 in human 22Rv1 cells assessed as reduction in SUZ12 level at 2 uM incubated for 24 hrs by Western blot analysis; format: cell-based
[15] = molecular target: T2, von Hippel-Lindau disease tumor suppressor/Histone-lysine N-methyltransferase EZH2 (Homo sapiens); experiment: Protac activity at VHL/EZH2 in VHL knockdown human 22Rv1 cells assessed as reduction in EZH2 level at 2 uM for 24 hrs by Western blot analysis; format: cell-based
SU-DHL-6 [16] = experiment: Antiproliferative activity against human SU-DHL-6 cells assessed as reduction in cell viability at 0.01 to 10 uM measured after 5 days by MTS assay; format: functional, cell-based; settings: dose 0.01-10 µM, time 5.0 day
[17] = molecular target: T2, von Hippel-Lindau disease tumor suppressor/Histone-lysine N-methyltransferase EZH2 (Homo sapiens); experiment: Protac activity at VHL/EZH2 in human 22Rv1 cells assessed as reduction in EZH2 level at 2 uM preincubated with VH032 for 2 hrs followed by compound addition and measured after 24 hrs by Western blot analysis; format: cell-based; settings: time 26.0 hrs
[18] = molecular target: Histone-lysine N-methyltransferase EZH2 (Homo sapiens) (UniProt Q15910); experiment: Induction of EZH2 degradation in human SUDHL2 cells at 0.1 to 5 uM after 24 hrs by Western blot analysis; format: cell-based; settings: dose 0.1-5 µM
[19] = molecular target: T2, von Hippel-Lindau disease tumor suppressor/Histone-lysine N-methyltransferase EZH2 (Homo sapiens); experiment: Protac activity at VHL/EZH2 in human 22Rv1 cells assessed as increase in EZH2 ubiquitination at 2 uM for 12 hrs by immunoprecipitation based Western blot analysis; format: cell-based
[20] = molecular target: von Hippel-Lindau disease tumor suppressor/Histone-lysine N-methyltransferase EZH1 (Homo sapiens) (UniProt Q92800+P40337); experiment: Protac activity at VHL/EZH1 in human 22Rv1 cells assessed as EZH1 protein abundance at 1 to 6 uM after 24 hrs by Western blot analysis; format: cell-based; settings: dose 1-6 µM
SU-DHL-6 [21] = experiment: Induction of cell cycle arrest in human SU-DHL-6 cells assessed as accumulation of cells at sub G1 phase after 24 hrs by flow cytometry; format: functional, cell-based; settings: dose 1-5 µM
[22] = molecular target: T4, von Hippel-Lindau disease tumor suppressor/Polycomb protein EED (Homo sapiens) (UniProt O75530+P40337); experiment: Protac activity at VHL/EED in human SUDHL2 cells assessed as reduction in EED level at 2 uM incubated for 24 hrs by Western blot analysis; format: cell-based
[23] = molecular target: T2, von Hippel-Lindau disease tumor suppressor/Histone-lysine N-methyltransferase EZH2 (Homo sapiens); experiment: Protac activity at VHL/EZH2 in human 22Rv1 cells assessed as reduction in H3K27me3 level at 1 uM incubated for 48 hrs by Western blot analysis; format: cell-based
SU-DHL-6 [24] = experiment: Induction of cell cycle arrest in human SU-DHL-6 cells after 24 hrs by flow cytometry; format: functional, cell-based; settings: dose 1-5 µM
[25] = molecular target: T4, von Hippel-Lindau disease tumor suppressor/Polycomb protein EED (Homo sapiens); experiment: Protac activity at VHL/EED in human 22Rv1 cells assessed as reduction in EED level at 2 uM incubated for 24 hrs by Western blot analysis; format: cell-based
SU-DHL-6 [26] = experiment: Induction of apoptosis in human SU-DHL-6 cells assessed as increase in cleaved capase-3 level at 1 to 5 uM incubated for 48 hrs by Western blot analysis; format: functional, cell-based; settings: dose 1-5 µM
[27] = molecular target: T2, von Hippel-Lindau disease tumor suppressor/Histone-lysine N-methyltransferase EZH2 (Homo sapiens); experiment: Protac activity at VHL/EZH2 in human 22Rv1 cells assessed as EZH2 degradation at 2 uM after 2 to 4 hrs by Western blot analysis; format: cell-based; settings: time 2-4 hrs
DLBCL [28] = experiment: Antitumor activity against patient derived human DLBCL cells assessed as reduction in cell viability at 1 to 7 uM incubated for 48 hrs by adenosine triphosphate assay; format: functional, cell-based; settings: dose 1-7 µM
SU-DHL-6 [29] = experiment: Antitumor activity against human SU-DHL-6 cells xenografted in nude Balb/c mouse assessed as reduction in tumor volume at 80 mg/kg, ip administered for 6 times weekly for 3 weeks; format: functional, organism-based
SU-DHL-6 [30] = experiment: Antitumor activity against human SU-DHL-6 cells xenografted in nude Balb/c mouse assessed as reduction in H3K27me3 level in tumor tissue at 80 mg/kg, ip administered for 6 times weekly for 3 weeks by Western blot analysis; format: functional, organism-based
SU-DHL-6 [31] = experiment: Antitumor activity against human SU-DHL-6 cells xenografted in nude Balb/c mouse assessed as reduction in tumor volume at 42.5 mg/kg, ip administered for 6 times weekly for 3 weeks; format: functional, organism-based
DLBCL [32] = experiment: Antitumor activity against patient derived human DLBCL cells assessed as increase in capase-6 activity at 1 to 7 uM incubated for 48 hrs by western blot analysis; format: functional, cell-based; settings: dose 1-7 µM
DLBCL [33] = experiment: Antitumor activity against patient derived human DLBCL cells assessed as increase in capase-3 activity at 1 to 7 uM incubated for 48 hrs by western blot analysis; format: functional, cell-based; settings: dose 1-7 µM
SU-DHL-6 [34] = experiment: Antitumor activity against human SU-DHL-6 cells xenografted in nude Balb/c mouse assessed as reduction in EZH2 level in tumor tissue at 80 mg/kg, ip administered for 6 times weekly for 3 weeks by Western blot analysis; format: functional, organism-based
SU-DHL-6 [35] = experiment: Antitumor activity against human SU-DHL-6 cells xenografted in Balb/c mouse assessed as inhibition of tumor growth at 80 mg/kg, ip administered for 6 times weekly for 3 weeks by Ki67 staining based immunohistochemistry; format: functional, organism-based
SU-DHL-6 [36] = experiment: Antitumor activity against human SU-DHL-6 cells xenografted in Balb/c mouse assessed as […] in tumor tissue at 80 mg/kg, ip administered for 6 times weekly for 3 weeks by Ki67 staining based immunohistochemistry; format: functional, organism-based
[37] = Toxicity in nude BALB/c mouse xenografted with SU-DHL-6 cells assessed as weight loss at 80 mg/kg, ip administered for 6 times weekly for 3 weeks; format: organism-based; settings: in vivo, 504 h
DLBCL [38] = experiment: Antitumor activity against patient derived human DLBCL cells assessed as EZH2 degradation for 24 hrs by western blot analysis; format: functional, cell-based; settings: dose 0.1-5 µM

T2 sequence (P40337 whole entry, looked up): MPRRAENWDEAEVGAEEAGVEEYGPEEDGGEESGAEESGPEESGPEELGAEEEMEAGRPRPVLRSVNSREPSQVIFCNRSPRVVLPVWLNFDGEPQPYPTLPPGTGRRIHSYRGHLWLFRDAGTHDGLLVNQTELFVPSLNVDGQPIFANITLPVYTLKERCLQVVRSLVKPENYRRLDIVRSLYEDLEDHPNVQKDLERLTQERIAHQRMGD
T2 sequence (Q15910 whole entry, looked up): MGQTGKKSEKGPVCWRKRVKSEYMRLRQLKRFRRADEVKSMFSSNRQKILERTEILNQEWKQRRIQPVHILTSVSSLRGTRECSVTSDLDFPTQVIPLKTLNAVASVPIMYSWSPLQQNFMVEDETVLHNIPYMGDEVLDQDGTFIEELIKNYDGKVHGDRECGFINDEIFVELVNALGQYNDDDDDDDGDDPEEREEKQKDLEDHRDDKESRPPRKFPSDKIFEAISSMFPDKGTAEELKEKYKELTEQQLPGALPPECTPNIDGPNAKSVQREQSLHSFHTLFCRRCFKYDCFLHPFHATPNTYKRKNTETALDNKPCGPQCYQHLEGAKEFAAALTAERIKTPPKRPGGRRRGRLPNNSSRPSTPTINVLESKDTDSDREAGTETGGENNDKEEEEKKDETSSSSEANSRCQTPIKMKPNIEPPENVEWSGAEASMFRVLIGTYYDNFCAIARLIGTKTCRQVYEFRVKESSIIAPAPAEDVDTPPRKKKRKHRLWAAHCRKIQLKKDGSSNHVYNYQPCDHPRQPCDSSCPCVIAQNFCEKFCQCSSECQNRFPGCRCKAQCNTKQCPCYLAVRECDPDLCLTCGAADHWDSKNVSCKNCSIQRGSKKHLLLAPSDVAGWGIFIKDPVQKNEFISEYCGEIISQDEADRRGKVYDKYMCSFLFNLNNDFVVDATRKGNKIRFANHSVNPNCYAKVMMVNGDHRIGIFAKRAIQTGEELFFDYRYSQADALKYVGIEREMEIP
T1 sequence (Q15910 whole entry, looked up): as above
T1 sequence (Q96SW2 whole entry, looked up): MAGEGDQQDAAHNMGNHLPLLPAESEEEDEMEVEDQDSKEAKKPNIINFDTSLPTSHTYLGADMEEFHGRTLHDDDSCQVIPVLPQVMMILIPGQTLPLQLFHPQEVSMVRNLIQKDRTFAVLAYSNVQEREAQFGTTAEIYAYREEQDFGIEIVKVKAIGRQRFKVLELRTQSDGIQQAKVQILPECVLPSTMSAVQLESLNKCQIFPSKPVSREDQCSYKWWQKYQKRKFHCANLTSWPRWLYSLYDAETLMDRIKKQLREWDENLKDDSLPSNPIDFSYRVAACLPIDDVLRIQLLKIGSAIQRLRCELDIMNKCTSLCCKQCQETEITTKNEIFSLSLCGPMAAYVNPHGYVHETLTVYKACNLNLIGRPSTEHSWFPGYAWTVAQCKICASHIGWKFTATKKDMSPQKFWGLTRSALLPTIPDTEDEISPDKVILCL
T3 sequence (P40337 whole entry, looked up): as the sequence (P40337 whole entry, looked up) above
T3 sequence (Q15022 whole entry, looked up): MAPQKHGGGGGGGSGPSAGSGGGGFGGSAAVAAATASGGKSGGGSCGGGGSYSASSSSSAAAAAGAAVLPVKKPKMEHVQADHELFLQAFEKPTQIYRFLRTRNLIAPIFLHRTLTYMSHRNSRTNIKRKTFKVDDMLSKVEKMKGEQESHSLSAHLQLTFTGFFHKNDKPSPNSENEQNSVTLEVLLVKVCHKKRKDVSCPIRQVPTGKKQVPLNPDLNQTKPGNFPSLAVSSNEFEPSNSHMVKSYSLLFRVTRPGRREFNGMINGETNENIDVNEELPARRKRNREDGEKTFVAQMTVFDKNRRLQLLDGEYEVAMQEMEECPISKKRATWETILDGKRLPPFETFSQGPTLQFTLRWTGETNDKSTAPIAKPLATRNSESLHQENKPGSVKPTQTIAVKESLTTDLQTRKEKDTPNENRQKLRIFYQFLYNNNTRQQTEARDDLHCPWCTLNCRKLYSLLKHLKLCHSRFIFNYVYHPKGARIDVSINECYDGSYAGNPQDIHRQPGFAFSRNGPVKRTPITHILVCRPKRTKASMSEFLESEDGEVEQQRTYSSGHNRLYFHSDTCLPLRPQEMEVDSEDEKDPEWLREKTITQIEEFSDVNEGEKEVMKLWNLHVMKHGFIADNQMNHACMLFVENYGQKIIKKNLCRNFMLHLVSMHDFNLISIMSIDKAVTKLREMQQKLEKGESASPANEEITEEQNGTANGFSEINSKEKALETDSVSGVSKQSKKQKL
Sequence of von Hippel-Lindau disease tumor suppressor/Histone-lysine N-methyltransferase EZH1 (Homo sapiens) (P40337 whole entry, looked up): as the sequence (P40337 whole entry, looked up) above
Sequence of von Hippel-Lindau disease tumor suppressor/Histone-lysine N-methyltransferase EZH1 (Homo sapiens) (Q92800 whole entry, looked up): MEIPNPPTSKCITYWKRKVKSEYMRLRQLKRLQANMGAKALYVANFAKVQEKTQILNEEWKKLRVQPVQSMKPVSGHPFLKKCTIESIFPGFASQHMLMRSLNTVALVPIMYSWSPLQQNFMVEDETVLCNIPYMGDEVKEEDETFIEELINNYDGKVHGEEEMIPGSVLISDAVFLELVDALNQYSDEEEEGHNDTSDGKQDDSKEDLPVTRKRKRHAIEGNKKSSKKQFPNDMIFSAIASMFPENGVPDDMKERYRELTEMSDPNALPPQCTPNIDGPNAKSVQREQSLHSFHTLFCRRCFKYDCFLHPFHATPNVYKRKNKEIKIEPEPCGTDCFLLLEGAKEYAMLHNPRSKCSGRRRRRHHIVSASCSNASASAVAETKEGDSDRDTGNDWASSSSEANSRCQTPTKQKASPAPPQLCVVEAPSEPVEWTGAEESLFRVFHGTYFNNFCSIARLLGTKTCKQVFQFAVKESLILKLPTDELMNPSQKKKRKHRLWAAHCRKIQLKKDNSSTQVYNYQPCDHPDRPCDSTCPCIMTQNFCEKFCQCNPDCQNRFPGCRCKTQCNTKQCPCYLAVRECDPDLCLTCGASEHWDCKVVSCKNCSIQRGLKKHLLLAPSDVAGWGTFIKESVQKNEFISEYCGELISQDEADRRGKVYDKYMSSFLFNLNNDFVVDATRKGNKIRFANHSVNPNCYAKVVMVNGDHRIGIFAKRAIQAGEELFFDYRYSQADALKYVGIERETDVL
T4 sequence (O75530 2-441 limits assumed): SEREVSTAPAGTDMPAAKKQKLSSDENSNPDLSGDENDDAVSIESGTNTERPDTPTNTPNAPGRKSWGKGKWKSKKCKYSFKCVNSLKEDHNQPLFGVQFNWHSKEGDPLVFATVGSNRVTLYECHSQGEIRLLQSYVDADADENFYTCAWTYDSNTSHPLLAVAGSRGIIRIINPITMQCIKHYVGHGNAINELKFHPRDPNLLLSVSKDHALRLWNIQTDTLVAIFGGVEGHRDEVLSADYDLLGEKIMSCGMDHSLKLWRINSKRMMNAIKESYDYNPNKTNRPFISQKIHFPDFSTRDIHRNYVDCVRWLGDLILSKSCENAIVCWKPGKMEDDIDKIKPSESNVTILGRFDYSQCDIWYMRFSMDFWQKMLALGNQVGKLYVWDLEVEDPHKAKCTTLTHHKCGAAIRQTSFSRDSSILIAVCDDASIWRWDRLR
T4 sequence (P40337 whole entry partner): as the sequence (P40337 whole entry, looked up) above
Sequence of Histone-lysine N-methyltransferase EZH2 (Homo sapiens) (Q15910 whole entry, looked up): as the sequence (Q15910 whole entry, looked up) above

Row | Activity [1] | Activity [2] | Activity [3] | Activity [4] | Activity [5] | Activity [6] | Activity [7] | Activity [9] | Activity [11] | Activity [19] | Activity [20] | Activity [23] | Structure (SMILES) | Activity (SUD4) | Activity (SU-DHL-6 [12]) | Activity (SU-DHL-6 [13]) | Activity (SU-DHL-2) | Activity (SU-DHL-6 [16]) | Activity (SU-DHL-6 [21]) | Activity (SU-DHL-6 [24]) | Activity (SU-DHL-6 [26]) | also measured
1 | Active | Active | inactive | Active | inactive | inactive | – | – | – | – | – | – | CCN(c1cc(-c2ccc(C(=O)NCCCCNc3cccc4c3C(=O)N(C3CCC(=O)NC3=O)C4=O)cc2)cc(C(=O)NCc2c(C)cc(C)[nH]c2=O)c1C)C1CCOCC1 (stereo unspecified) | – | – | – | – | – | – | – | – | –
2 | – | – | – | – | – | – | Dose-Dependent Effect | Dose-Dependent Effect | Active | Active | inactive | Active | CCN(c1cc(-c2ccc(OCCOCCOCC(=O)N[C@H](C(=O)N3C[C@H](O)C[C@H]3C(=O)NCc3ccc(-c4scnc4C)cc3)C(C)(C)C)cc2)cc(C(=O)NCc2c(C)cc(C)[nH]c2=O)c1C)C1CCOCC1 | Active | Active | Dose-Dependent Effect | Active | Active | Dose-Dependent Effect | Dose-Dependent Effect | Active | Activity [8]: Active; Emax [10]: 80%; Activity [14]: Active; Activity [15]: inactive; Activity [17]: inactive; Activity [18]: Active; Activity [22]: Active; Activity [25]: Active; Activity [27]: Active
3 | inactive | inactive | inactive | inactive | inactive | inactive | – | – | – | – | – | – | CCN(c1cc(-c2ccc(C(=O)NCCOCCOCCOc3cccc4c3C(=O)N(C3CCC(=O)NC3=O)C4=O)cc2)cc(C(=O)NCc2c(C)cc(C)[nH]c2=O)c1C)C1CCOCC1 (stereo unspecified) | – | – | – | – | – | – | – | – | –
4 | – | – | – | – | – | – | Dose-Dependent Effect | Dose-Dependent Effect | Active | Active | inactive | Active | CCN(c1cc(-c2ccc(OCCCOCC(=O)N[C@H](C(=O)N3C[C@H](O)C[C@H]3C(=O)NCc3ccc(-c4scnc4C)cc3)C(C)(C)C)cc2)cc(C(=O)NCc2c(C)cc(C)[nH]c2=O)c1C)C1CCOCC1 | Active | Active | Dose-Dependent Effect | Active | Active | Dose-Dependent Effect | Dose-Dependent Effect | Active | Activity (DLBCL [28]): Active; Activity (SU-DHL-6 [29]): Active; Activity (SU-DHL-6 [30]): Active; Activity (SU-DHL-6 [31]): inactive; Activity (DLBCL [32]): Active; Activity (DLBCL [33]): Active; Activity (SU-DHL-6 [34]): Active; Activity (SU-DHL-6 [35]): Active; Activity (SU-DHL-6 [36]): Active; Activity [37]: Non-Toxic; Activity (DLBCL [38]): Dose-Dependent Effect
5 | inactive | Active | inactive | inactive | inactive | inactive | – | – | – | – | – | – | CCN(c1cc(-c2ccc(C(=O)NCCCCCCCCNC(=O)COc3cccc4c3C(=O)N(C3CCC(=O)NC3=O)C4=O)cc2)cc(C(=O)NCc2c(C)cc(C)[nH]c2=O)c1C)C1CCOCC1 (stereo unspecified) | – | – | – | – | – | – | – | – | –
